Results reported in ChEMBL document CHEMBL1201862, “PubChem BioAssay data set” (2004).
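In this assay, cells in 96-well plates receive the compound at five concentrations for 48 hours. Endpoints are linearly interpolated between the surrounding concentrations. The concentration for 50% growth inhibition is given as GI50.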 Activity calls are given as the source filed them. No stated cut-off is given here; in the data, active = GI50 up to about 1.1 µM and inactive = higher.

Assays:
Test in all cases: DTP human tumour cell line panel, 48 h
U-251 = system: U-251
LOX IMVI = system: LOX IMVI
786-0 = system: 786-0
EKVX = system: EKVX
SK-MEL-28 = system: SK-MEL-28
SK-MEL-2 = system: SK-MEL-2
IGROV-1 = system: IGROV-1
NCI-H460 = system: NCI-H460
XF498 = system: XF498
UACC-257 = system: UACC-257
HCC 2998 = system: HCC 2998
KM12 = system: KM12
DLD-1 = system: DLD-1
OVCAR-5 = system: OVCAR-5
SK-MEL-5 = system: SK-MEL-5
NCI-H23 = system: NCI-H23
UO-31 = system: UO-31
OVCAR-8 = system: OVCAR-8
LXFL 529 = system: LXFL 529
SNB-78 = system: SNB-78
SW-620 = system: SW-620
HOP-62 = system: HOP-62
OVCAR-3 = system: OVCAR-3
TK-10 = system: TK-10
DMS-273 = system: DMS-273
SK-OV-3 = system: SK-OV-3
HOP-92 = system: HOP-92
KM-20L2 = system: KM-20L2
MOLT-4 = system: MOLT-4
M19-MEL = system: M19-MEL
SF-268 = system: SF-268
RXF 393 = system: RXF 393
DMS-114 = system: DMS-114
HT-29 = system: HT-29
SF-295 = system: SF-295
NCI-H522 = system: NCI-H522
RPMI-8226 = system: RPMI-8226
Malme-3M = system: Malme-3M
COLO 205 = system: COLO 205
HCT-116 = system: HCT-116
HOP-18 = system: HOP-18
K562 = system: K562
HL-60 = system: HL-60
A549 = system: A549
SNB-19 = system: SNB-19
ACHN = system: ACHN
RXF 631 = system: RXF 631
CCRF-CEM = system: CCRF-CEM
SNB-75 = system: SNB-75
SF-539 = system: SF-539
A498 = system: A498
SN12C = system: SN12C
M14 = system: M14
SR = system: SR
HCT-15 = system: HCT-15
OVCAR-4 = system: OVCAR-4
UACC-62 = system: UACC-62
CAKI-1 = system: CAKI-1
NCI-H226 = system: NCI-H226

Measured: GI50

O=P(O)(OCC(O)O)OCC(O)O
inactive: U-251 > 100 µM | LOX IMVI > 100 µM | 786-0 > 100 µM | EKVX > 100 µM | SK-MEL-28 > 100 µM | SK-MEL-2 > 100 µM | IGROV-1 > 100 µM | NCI-H460 > 100 µM | XF498 > 100 µM | UACC-257 > 100 µM | HCC 2998 > 100 µM | KM12 > 100 µM | DLD-1 > 100 µM | OVCAR-5 > 100 µM | SK-MEL-5 > 100 µM | NCI-H23 > 100 µM | UO-31 > 100 µM | OVCAR-8 > 100 µM | LXFL 529 > 100 µM | SNB-78 > 100 µM | SW-620 > 100 µM | HOP-62 > 100 µM | OVCAR-3 > 100 µM | TK-10 > 100 µM | DMS-273 > 100 µM | SK-OV-3 > 100 µM | HOP-92 > 100 µM | KM-20L2 > 100 µM | MOLT-4 > 100 µM | M19-MEL > 100 µM | SF-268 > 100 µM | RXF 393 > 100 µM | DMS-114 > 100 µM | HT-29 > 100 µM | SF-295 > 100 µM | NCI-H522 > 100 µM | RPMI-8226 > 100 µM | Malme-3M > 100 µM | COLO 205 > 100 µM | HCT-116 > 100 µM | HOP-18 41.4 µM | K562 > 100 µM | HL-60 > 100 µM | A549 > 100 µM | SNB-19 > 100 µM | ACHN > 100 µM | RXF 631 > 100 µM | CCRF-CEM > 100 µM | SNB-75 > 100 µM | SF-539 > 100 µM | A498 > 100 µM

Clc1cc2n[se]nc2cc1Cl
inactive: U-251 > 100 µM | LOX IMVI > 100 µM | 786-0 > 100 µM | EKVX > 100 µM | SK-MEL-28 > 100 µM | SK-MEL-2 > 100 µM | SN12C > 100 µM | IGROV-1 > 100 µM | NCI-H460 > 100 µM | XF498 > 100 µM | UACC-257 > 100 µM | HCC 2998 > 100 µM | KM12 > 100 µM | DLD-1 > 100 µM | OVCAR-5 > 100 µM | SK-MEL-5 > 100 µM | NCI-H23 > 100 µM | M14 > 100 µM | UO-31 > 100 µM | OVCAR-8 > 100 µM | LXFL 529 > 100 µM | SNB-78 > 100 µM | SW-620 > 100 µM | HOP-62 > 100 µM | TK-10 > 100 µM | DMS-273 > 100 µM | SR > 100 µM | SK-OV-3 > 100 µM | KM-20L2 > 100 µM | MOLT-4 > 100 µM | M19-MEL > 100 µM | SF-268 > 100 µM | RXF 393 > 100 µM | DMS-114 > 100 µM | HT-29 > 100 µM | SF-295 > 100 µM | RPMI-8226 > 100 µM | Malme-3M > 100 µM | HCT-116 > 100 µM | HOP-18 > 100 µM | K562 > 100 µM | HL-60 84.1 µM | A549 > 100 µM | SNB-19 > 100 µM | ACHN > 100 µM | RXF 631 > 100 µM | CCRF-CEM > 100 µM | OVCAR-4 > 100 µM | UACC-62 > 100 µM | SNB-75 36.1 µM | SF-539 > 100 µM | CAKI-1 > 100 µM | A498 > 100 µM
> 100 µM: HCT-15

Cc1nc(Nc2ccc(Cl)cc2)sc1C(=O)NNC(=S)NN
20.4 µM: HCT-15
inactive: U-251 17.5 µM | LOX IMVI 14.5 µM | 786-0 16.6 µM | EKVX 16.9 µM | SK-MEL-28 19.3 µM | SK-MEL-2 18.5 µM | SN12C 18.1 µM | IGROV-1 25.9 µM | NCI-H460 19.7 µM | XF498 21.2 µM | UACC-257 13.2 µM | HCC 2998 15.5 µM | KM12 20.1 µM | DLD-1 16.6 µM | OVCAR-5 16.8 µM | SK-MEL-5 18.3 µM | NCI-H23 17.6 µM | M14 19.7 µM | UO-31 15.8 µM | OVCAR-8 21.3 µM | LXFL 529 20 µM | SNB-78 19.5 µM | SW-620 19.5 µM | HOP-62 18.8 µM | OVCAR-3 19.3 µM | TK-10 20.9 µM | DMS-273 18.6 µM | SK-OV-3 27.4 µM | HOP-92 26.1 µM | KM-20L2 17.5 µM | MOLT-4 21.5 µM | NCI-H226 19.1 µM | M19-MEL 22.3 µM | SF-268 21.1 µM | RXF 393 12.7 µM | DMS-114 17.5 µM | SF-295 17.5 µM | NCI-H522 16.6 µM | RPMI-8226 29 µM | Malme-3M 19.7 µM | COLO 205 21.6 µM | HCT-116 17 µM | HOP-18 18.3 µM | K562 27.3 µM | HL-60 21.4 µM | A549 19 µM | SNB-19 18.9 µM | ACHN 19.5 µM | RXF 631 19.5 µM | CCRF-CEM 29.1 µM | OVCAR-4 17.7 µM | UACC-62 17.2 µM | SNB-75 32.7 µM | SF-539 17.5 µM | CAKI-1 24.7 µM | A498 15.3 µM

Cc1ccc(C2=C(c3ccccc3)C(Br)(c3ccc(C)cc3)C(c3ccccc3)=C2c2ccc(C)cc2)cc1
inactive: U-251 > 100 µM | LOX IMVI > 100 µM | 786-0 > 100 µM | EKVX > 100 µM | SK-MEL-28 > 100 µM | SK-MEL-2 > 100 µM | SN12C > 100 µM | IGROV-1 > 100 µM | NCI-H460 > 100 µM | XF498 > 100 µM | UACC-257 > 100 µM | HCC 2998 > 100 µM | KM12 > 100 µM | DLD-1 > 100 µM | OVCAR-5 > 100 µM | SK-MEL-5 > 100 µM | NCI-H23 > 100 µM | M14 > 100 µM | OVCAR-8 > 100 µM | LXFL 529 > 100 µM | SNB-78 > 100 µM | SW-620 > 100 µM | HOP-62 > 100 µM | OVCAR-3 > 100 µM | TK-10 > 100 µM | DMS-273 > 100 µM | SK-OV-3 > 100 µM | HOP-92 > 100 µM | KM-20L2 > 100 µM | MOLT-4 > 100 µM | M19-MEL > 100 µM | SF-268 > 100 µM | DMS-114 > 100 µM | SF-295 > 100 µM | RPMI-8226 > 100 µM | Malme-3M > 100 µM | COLO 205 > 100 µM | HCT-116 > 100 µM | HOP-18 2.09 µM | K562 > 100 µM | HL-60 > 100 µM | A549 > 100 µM | SNB-19 > 100 µM | ACHN > 100 µM | RXF 631 > 100 µM | CCRF-CEM > 100 µM | OVCAR-4 > 100 µM | UACC-62 > 100 µM | SF-539 > 100 µM | CAKI-1 > 100 µM | A498 > 100 µM
> 100 µM: HCT-15
